Test [1] concerns chicken sEH phosphatase activity. Put plainly: Phosphatase assay. In kind it is biochemical. Conditions: conditions developed for the mammalian enzyme phosphatase assay. On the procedure: The phosphatase substrate, threo-9,10-phosphonooxy-hydroxy-octadecanoic acid was synthesized as previously described (Newman, J. W. et al., Proc. Natl. Acad. Sci. USA 100: 1558-1563 (2003)). The assay was performed and analyzed by HPLC-MS/MS as described (Newman, J. W. et al., Proc. Natl. Acad. Sci. USA 100:1558-1563 (2003)).

The target in test [2] is T1, mouse sEH (Mus musculus, UniProt P34914).
T1 sequence (P34914 1-554): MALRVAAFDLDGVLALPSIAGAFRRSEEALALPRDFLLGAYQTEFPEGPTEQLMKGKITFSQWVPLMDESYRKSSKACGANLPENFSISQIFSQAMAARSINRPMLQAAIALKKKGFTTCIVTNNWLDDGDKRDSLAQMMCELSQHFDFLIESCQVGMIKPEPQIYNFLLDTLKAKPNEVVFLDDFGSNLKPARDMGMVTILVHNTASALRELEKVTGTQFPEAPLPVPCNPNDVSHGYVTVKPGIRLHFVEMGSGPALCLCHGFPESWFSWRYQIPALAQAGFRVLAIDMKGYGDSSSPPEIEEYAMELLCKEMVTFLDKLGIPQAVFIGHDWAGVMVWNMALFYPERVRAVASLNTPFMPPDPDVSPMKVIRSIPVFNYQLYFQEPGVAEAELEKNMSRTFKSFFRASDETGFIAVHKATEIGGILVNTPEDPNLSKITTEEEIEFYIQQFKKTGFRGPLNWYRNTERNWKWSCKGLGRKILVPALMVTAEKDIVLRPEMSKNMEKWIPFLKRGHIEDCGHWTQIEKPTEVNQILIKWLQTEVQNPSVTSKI
As to conditions: compound as substrate, from Morisseau 2000; cited from earlier work.

Test [3] addresses Recombinant chicken sEH (Gallus gallus, UniProt Q45QT1). Put plainly: Non-radioactive epoxide hydrolase assay (HPLC-MS/MS), specific activity of substrates. Type of test: biochemical. Conditions: compound as substrate, 50 μM, 30° C., 10 min. Here is the method: The trans-9,10-epoxystearate was purchased (Sigma-Aldrich). A 5 mM solution of each substrate was made in ethanol for the EETs and methanol for the epoxystearate. The substrate solution (1 μL) was added to 100 μL of enzyme preparation in sodium phosphate buffer (0.1 M, pH 7.4) containing 0.1 mg/mL of BSA ([S]final=50 μM). The enzyme was incubated with the substrate at 30° C. for 10 min, and the reaction quenched by addition of 400 μL of methanol. The products were analyzed by HPLC-MS/MS as previously described (Newman, J. W. et al., J. Lipid Res. 43:1563-1578 (2002)) with the following exceptions. A 2.0×20 mm, 3-μm Luna C18 Mercury MS column (Phenomenex, Torrance, Calif.) was used with a 350 μL/min isocratic flow of […] (vol/vol/vol) acetonitrile/water/methanol with 0.1% glacial acetic acid for 2.5 min. Assays were performed in triplicate.

Test [4] concerns the target T2, sEH (Homo sapiens, UniProt P34913).
T2 sequence (P34913 1-555): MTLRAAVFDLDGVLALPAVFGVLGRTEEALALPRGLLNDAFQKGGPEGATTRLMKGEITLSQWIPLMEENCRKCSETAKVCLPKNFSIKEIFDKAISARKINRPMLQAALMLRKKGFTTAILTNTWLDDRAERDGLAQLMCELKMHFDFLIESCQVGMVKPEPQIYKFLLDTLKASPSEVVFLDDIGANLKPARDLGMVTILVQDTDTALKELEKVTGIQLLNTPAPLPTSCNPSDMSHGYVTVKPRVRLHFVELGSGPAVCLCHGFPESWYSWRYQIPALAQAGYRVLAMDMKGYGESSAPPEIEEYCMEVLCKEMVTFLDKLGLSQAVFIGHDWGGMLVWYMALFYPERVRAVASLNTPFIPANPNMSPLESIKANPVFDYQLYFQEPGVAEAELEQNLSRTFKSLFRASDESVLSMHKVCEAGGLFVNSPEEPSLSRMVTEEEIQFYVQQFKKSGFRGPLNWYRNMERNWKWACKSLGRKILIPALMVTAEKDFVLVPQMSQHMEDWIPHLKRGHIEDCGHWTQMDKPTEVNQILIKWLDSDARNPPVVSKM
The test is described as follows: sEH inhibition, general statements on earlier tests. In kind it is biochemical. Conditions: statement in words, no method given.

Marks after values point to notes of the source that are not given here.

Sequence of chicken sEH phosphatase activity (as listed by the source): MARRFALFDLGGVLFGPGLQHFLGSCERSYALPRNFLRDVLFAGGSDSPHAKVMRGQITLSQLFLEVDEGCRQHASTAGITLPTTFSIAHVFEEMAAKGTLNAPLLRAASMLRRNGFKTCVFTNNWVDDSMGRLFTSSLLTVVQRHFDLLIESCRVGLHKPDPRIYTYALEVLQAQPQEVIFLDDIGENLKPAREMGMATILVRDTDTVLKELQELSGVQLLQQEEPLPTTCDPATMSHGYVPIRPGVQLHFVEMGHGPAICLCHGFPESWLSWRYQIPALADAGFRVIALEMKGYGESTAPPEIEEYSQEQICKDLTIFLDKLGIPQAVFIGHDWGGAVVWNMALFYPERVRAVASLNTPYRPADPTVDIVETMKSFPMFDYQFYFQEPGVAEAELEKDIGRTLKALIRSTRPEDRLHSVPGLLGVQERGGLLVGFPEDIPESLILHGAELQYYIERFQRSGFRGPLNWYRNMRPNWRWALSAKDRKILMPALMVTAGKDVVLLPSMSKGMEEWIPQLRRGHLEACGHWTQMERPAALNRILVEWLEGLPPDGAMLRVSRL
Sequence of Recombinant chicken sEH (Q45QT1 entry or part of it): as the sequence (as listed by the source) above

For “threo-9,10-phosphonooxy-hydroxy-octadecanoic acid”, in test [1], the “Hydrolysis of phosphatase substrate by chicken enzyme” value is listed as “did not hydrolyze”. With `CCCCCCCCC1OC1CCCCCCCC(=O)O` (stereo not drawn) [cis-9,10-epoxystearic acid], the Specific activity in test [2] was 1139 ± 34* nmol · min^−1 · mg^−1; in test [3], 3.1 ± 0.2 nmol/min/mg.

Regarding `CCCCCCCCCCCCNC(=O)NC12CC3CC(CC(C3)C1)C2` [ADU, N-Adamantyl-N′-dodecyl urea], the “Activity as inhibitor of sEH” value in test [4] was “particularly high activity”.

The values above are taken from patent US20080188554A1, “METHODS OF TREATING AVIAN HYPERTENSION” (Regents of the University of California Office of …, priority 2006, published 2008).
